Results taken from EP0912195B1, “VACCINE COMPRISING ANTIGENS BOUND TO CARRIERS THROUGH LABILE BONDS” (PEPSCAN SYSTEMS B.V., priority 1996, dated 1997).
Residues, ends and D or L forms follow the SMILES beside them. *: point of attachment. Palmitoyl = CCCCCCCCCCCCCCCC(=O)*

Conditions: 3 hours

| SMILES | stability of thioesters during acidolytic removal of tert-butyloxy functions and/or cleavage of the resin-peptide bond |
| --- | --- |
| CCCCCCCCCCCCCCCC(=O)SC[C@H](NC(C)=O)C(=O)N[C@H](C(=O)N[C@@H](C)C(=O)N[C@H](C(=O)N[C@@H](CCC(N)=O)C(=O)N[C@@H](CC(C)C)C(=O)N1CCC[C@H]1C(=O)N[C@@H](C)C(=O)N[C@@H](CO)C(=O)N[C@@H](Cc1ccccc1)C(N)=O)[C@@H](C)O)C(C)C [Ac-C(palm)VATQLPASF-NH2] (Ac-C(Palmitoyl)VATQLPASF-NH2) | stable under all these acidic conditions |
| CCCCCCCCCCCCCCCC(=O)SC[C@H](NC(C)=O)C(=O)N[C@@H](CO)C(=O)N[C@@H](CCC(=O)O)C(=O)N[C@H](C(=O)N[C@@H](Cc1ccccc1)C(=O)N[C@@H](CCCNC(=N)N)C(=O)N1CCC[C@H]1C(=O)NCC(=O)NCC(=O)NCC(=O)N[C@@H](CC(=O)O)C(=O)N[C@@H](CCSC)C(=O)N[C@@H](CCCNC(=N)N)C(N)=O)[C@@H](C)CC [Ac-C(palm)SEIFRPGGGDMR-NH2] (Ac-C(Palmitoyl)SEIFRPGGGDMR-NH2) | stable under all these acidic conditions |
